The structures appear in SMILES notation.

Data on three compounds can be found in paper PMC11173485, “Connecting GSK-3β Inhibitory Activity with IKK-β or ROCK-1 Inhibition to Target Tau Aggregation and Neuroinflammation in Alzheimer’s Disease—Discovery, In Vitro and In Cellulo Activity of Thiazole-Based Inhibitors” (Molecules, 2024).

The target in test [1] is T1, IKK-β (Homo sapiens, UniProt O14920).
T1 construct: purchased Promega
T1 sequence (O14920 1-756): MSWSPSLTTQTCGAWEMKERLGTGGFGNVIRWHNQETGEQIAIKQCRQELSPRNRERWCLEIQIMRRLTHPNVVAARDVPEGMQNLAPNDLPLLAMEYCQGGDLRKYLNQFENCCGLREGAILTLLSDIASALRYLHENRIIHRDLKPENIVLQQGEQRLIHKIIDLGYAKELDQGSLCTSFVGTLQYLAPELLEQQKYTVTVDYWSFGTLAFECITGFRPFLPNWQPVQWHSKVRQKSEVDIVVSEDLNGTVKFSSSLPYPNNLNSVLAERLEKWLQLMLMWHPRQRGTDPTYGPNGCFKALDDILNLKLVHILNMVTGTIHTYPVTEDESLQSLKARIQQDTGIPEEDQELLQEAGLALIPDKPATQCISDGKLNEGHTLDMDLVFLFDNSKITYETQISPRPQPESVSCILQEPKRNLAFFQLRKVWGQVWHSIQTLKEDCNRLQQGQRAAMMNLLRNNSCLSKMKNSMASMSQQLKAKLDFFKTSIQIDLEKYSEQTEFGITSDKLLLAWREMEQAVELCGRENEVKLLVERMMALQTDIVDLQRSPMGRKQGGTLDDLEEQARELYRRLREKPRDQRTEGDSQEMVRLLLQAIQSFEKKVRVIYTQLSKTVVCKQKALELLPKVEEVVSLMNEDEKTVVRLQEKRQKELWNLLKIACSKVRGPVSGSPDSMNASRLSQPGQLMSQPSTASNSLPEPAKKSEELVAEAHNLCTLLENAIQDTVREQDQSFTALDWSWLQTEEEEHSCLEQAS
Kind of test: ADP-Glo kinase assay, IKK-β inhibition. The class given is biochemical. The following applies: for IC50: mean ± SEM, ATP 25 µM. The text has this: (§1) We evaluated the inhibitory activity of the final compounds against GSK-3β, IKK-β, and ROCK-1 kinases using the commercially available ADP-Glo™ kinase assay. The method was based on the measurement of luminescence that correlates with kinase activity. […] The latter are inhibitors of the kinases of interest and were integral to the design of our studies.
(§2) Promega’s Kinase Enzyme Systems (Promega; Madison, WI, USA) were used to determine the activities of the tested compounds against the human recombinant kinases GSK-3β, IKK- β, and ROCK-1. The assays were performed according to the provided manufacturer’s instruction, based on the optimized conditions of the enzymatic reactions, using the low-volume, white polystyrene, 384-well plates. The ADP-Glo™ Assay (Promega; Madison, WI, USA) was used for bioluminescent detection of the kinase activity. Stock solutions of the tested compounds in DMSO (1mM) were diluted with the Kinase Assay Buffer before use (40 mM Tris, pH 7.5, enriched with 50 µM dithiothreitol; DTT), giving the final desired concentrations. The kinase enzymes, substrates, and ATP solutions were also diluted with the assay buffer prior to use. The GSK-3β, IKK-β, and ROCK-1 substrates were derived from human muscle glycogen synthase 1, human IkBA, and human 40S ribosomal protein S6, respectively. The assay procedure was as follows: At first, the appropriate kinase enzyme (GSK-3β: 10 ng per well; IKK-β: 45 ng per well; ROCK-1: 24 ng per well) was incubated with the tested sample (10 µM in well) for 5 min. The DMSO solution (1% in well) was used in the blank samples instead of the tested inhibitors. After the incubation period, ATP (25 µM per well in the case of GSK-3β and IKK-β kinases; 5 µM per well in the case of ROCK-1 kinase) and an appropriate enzyme substrate (0.2 µg/µL in well) were added to start the enzymatic reaction. The reaction mixture was kept at room temperature for 1 h; then, the ADP-Glo™ reagent was added, to terminate the kinase reaction and deplete any remaining ATP. After 40 min, a second reagent (Kinase Detection Reagent) was applied to convert the obtained ADP to ATP and to generate light from the newly synthesized ATP using a luciferase/luciferin reaction. The mixture was incubated for another 30 min at room temperature before the luminescence was measured. The calculations of the percent of kinases’ inhibition by tested compounds were based on the equation 100 − (S/B) × 100; S and B are the enzyme activities with and without the tested sample, respectively. […] Each compound was evaluated in two independent experiments, with every data point collected in duplicate.

Test [2] addresses GSK-3β (Homo sapiens, UniProt P49841). Kind of test: ADP-Glo kinase assay, GSK-3β inhibition. Type of test: biochemical. The arrangement: purchased Promega. The following applies: for IC50: mean ± SEM, ATP 25 µM.
Excerpt: as §1, §2
(ADP-Glo first removes unused ATP, then detects ADP through luciferase.)

The subject of test [3] is IKK-β. The arrangement: method as in PMID 15125939. The following applies: Figure 1; cited from earlier work.
The subject of test [4] is ROCK-1. The arrangement: method as in PMID 28284870. The conditions noted are these: Figure 1; cited from earlier work.
Test [5] concerns the target T2, ROCK-1 (Homo sapiens, UniProt Q13464).
T2 construct: purchased Promega
As to the kind of experiment: ADP-Glo kinase assay, ROCK-1 inhibition. Type of test: biochemical.
Excerpt: as §1
Promega’s Kinase Enzyme Systems (Promega; Madison, WI, USA) were used to determine the activities of the tested compounds against the human recombinant kinases GSK-3β, IKK- β, and ROCK-1. The assays were performed according to the provided manufacturer’s instruction, based on the optimized conditions of the enzymatic reactions, using the low-volume, white polystyrene, 384-well plates. The ADP-Glo™ Assay (Promega; Madison, WI, USA) was used for bioluminescent detection of the kinase activity. Stock solutions of the tested compounds in DMSO (1mM) were diluted with the Kinase Assay Buffer before use (40 mM Tris, pH 7.5, enriched with 50 µM dithiothreitol; DTT), giving the final desired concentrations. The kinase enzymes, substrates, and ATP solutions were also diluted with the assay buffer prior to use. The GSK-3β, IKK-β, and ROCK-1 substrates were derived from human muscle glycogen synthase 1, human IkBA, and human 40S ribosomal protein S6, respectively. […] The DMSO solution (1% in well) was used in the blank samples instead of the tested inhibitors. After the incubation period, ATP (25 µM per well in the case of GSK-3β and IKK-β kinases; 5 µM per well in the case of ROCK-1 kinase) and an appropriate enzyme substrate (0.2 µg/µL in well) were added to start the enzymatic reaction. The reaction mixture was kept at room temperature for 1 h; then, the ADP-Glo™ reagent was added, to terminate the kinase reaction and deplete any remaining ATP. After 40 min, a second reagent (Kinase Detection Reagent) was applied to convert the obtained ADP to ATP and to generate light from the newly synthesized ATP using a luciferase/luciferin reaction. The mixture was incubated for another 30 min at room temperature before the luminescence was measured. The calculations of the percent of kinases’ inhibition by tested compounds were based on the equation 100 − (S/B) × 100; S and B are the enzyme activities with and without the tested sample, respectively. […]. IC50 results were obtained using nonlinear regression (GraphPad Prism 9; GraphPad Software, San Diego, CA, USA) by plotting the residual enzyme activities against the applied inhibitor concentration. Each compound was evaluated in two independent experiments, with every data point collected in duplicate.

GSK-3β, sequence (P49841 whole entry): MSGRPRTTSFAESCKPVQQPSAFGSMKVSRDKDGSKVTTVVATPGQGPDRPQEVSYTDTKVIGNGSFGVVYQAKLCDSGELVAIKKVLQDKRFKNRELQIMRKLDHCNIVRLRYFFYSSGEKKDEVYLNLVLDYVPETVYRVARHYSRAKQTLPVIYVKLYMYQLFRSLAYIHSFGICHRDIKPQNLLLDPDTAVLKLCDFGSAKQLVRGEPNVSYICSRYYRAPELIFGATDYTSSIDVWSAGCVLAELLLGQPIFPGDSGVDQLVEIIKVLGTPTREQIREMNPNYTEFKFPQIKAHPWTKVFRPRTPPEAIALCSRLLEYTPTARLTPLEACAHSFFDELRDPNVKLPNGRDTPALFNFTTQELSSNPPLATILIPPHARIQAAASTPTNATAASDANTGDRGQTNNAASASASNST
T2 sequence (Q13464 whole entry): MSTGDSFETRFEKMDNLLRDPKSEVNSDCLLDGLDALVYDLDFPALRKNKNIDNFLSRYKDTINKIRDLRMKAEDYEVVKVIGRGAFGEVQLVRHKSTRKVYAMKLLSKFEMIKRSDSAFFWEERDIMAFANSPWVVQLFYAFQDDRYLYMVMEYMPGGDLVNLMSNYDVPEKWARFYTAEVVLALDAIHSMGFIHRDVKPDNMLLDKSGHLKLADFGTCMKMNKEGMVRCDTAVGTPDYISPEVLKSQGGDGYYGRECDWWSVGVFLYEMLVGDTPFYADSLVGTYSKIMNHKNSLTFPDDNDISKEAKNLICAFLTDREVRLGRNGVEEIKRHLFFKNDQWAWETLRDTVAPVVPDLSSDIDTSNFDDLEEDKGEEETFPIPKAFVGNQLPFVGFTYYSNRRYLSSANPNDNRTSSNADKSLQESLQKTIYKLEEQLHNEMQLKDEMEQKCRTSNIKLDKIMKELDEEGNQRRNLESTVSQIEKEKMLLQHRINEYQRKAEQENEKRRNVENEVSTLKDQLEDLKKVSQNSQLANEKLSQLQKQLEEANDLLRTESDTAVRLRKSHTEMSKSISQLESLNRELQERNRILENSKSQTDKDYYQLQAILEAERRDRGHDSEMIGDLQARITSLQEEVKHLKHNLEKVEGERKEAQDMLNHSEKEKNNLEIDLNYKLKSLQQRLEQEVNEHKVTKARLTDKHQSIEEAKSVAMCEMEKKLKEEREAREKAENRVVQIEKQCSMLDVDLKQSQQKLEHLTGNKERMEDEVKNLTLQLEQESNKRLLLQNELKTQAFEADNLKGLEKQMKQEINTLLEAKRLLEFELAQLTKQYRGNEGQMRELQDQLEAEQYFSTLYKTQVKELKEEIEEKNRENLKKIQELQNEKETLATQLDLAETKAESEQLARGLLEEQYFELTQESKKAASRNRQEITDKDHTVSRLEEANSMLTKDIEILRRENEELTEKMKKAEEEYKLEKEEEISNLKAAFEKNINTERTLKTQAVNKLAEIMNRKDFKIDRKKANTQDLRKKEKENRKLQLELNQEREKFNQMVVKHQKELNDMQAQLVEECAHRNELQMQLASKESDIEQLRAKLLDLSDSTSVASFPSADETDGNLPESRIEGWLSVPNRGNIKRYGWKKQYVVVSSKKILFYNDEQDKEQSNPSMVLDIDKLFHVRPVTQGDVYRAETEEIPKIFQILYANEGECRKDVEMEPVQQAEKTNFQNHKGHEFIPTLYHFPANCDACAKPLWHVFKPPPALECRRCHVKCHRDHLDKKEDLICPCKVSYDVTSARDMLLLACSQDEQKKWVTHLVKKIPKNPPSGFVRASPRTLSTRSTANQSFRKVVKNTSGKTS

As to `NC(=O)Nc1cc(-c2ccc(F)cc2)sc1C(N)=O` [III, reference compound], the concentration for half-maximal inhibition (IC50) (as a rule, the midpoint of a concentration-inhibition curve) is 405 ± 9 nM in test [1] and 63 nM in test [3]. Besides, in test [2] (10 µM, mean ± SD, read-out: % inh. at 10 µM GSK-3β), the inhibition at 10 µM was determined as 47%.

`CC1(C)NC(=O)c2sc(-c3ccncc3)cc2N1` [I, reference compound]: the IC50 is 90 nM in test [4]; 119 ± 6 nM in test [5] (mean ± SEM, ATP 5 µM); 161 ± 2 nM in test [2]. Also, the inhibition at 10 µM in test [1] (10 µM, mean ± SD, read-out: % inh. at 10 µM IKK-β) came out at 46%.

As to `NC(=O)Nc1cc(-c2ccc(F)c(NC(=O)C3CC3)c2)sc1C(N)=O` [Compound 59, 5-(3-(Cyclopropanecarboxamido)-4-fluorophenyl)-3-ureidothiophene-2-carboxamide], the inhibition at 10 µM in test [5] (10 µM, mean ± SD, read-out: % inh. at 10 µM ROCK-1) is below 10%. The IC50 worked out at 7620 ± 695 nM in test [1] and 1850 ± 38 nM in test [2].
